Experimental data taken from PMC9032718, “Eltrombopag as an Allosteric Inhibitor of the METTL3-14 Complex Affecting the m^6A Methylation of RNA in Acute Myeloid Leukemia Cells” (Pharmaceuticals, 2022).

Experiments:
[1] = system: m^6A methylation of MOLM-13 transcriptome; set-up: method as in PMID 33902106; conditions: cited from earlier work
METTL3-14 complex = target: T1, METTL3-14 complex (Homo sapiens, UniProt Q86U44); assay: METTL3-14 enzyme-based bioluminescence assay (screening assay); type: biochemical; conditions: for Km: Michaelis-Menten, Figure S1, read-out: Km of METTL3-14 substrates; for inhibition at 60 µM: read-out: % inhibition of METTL3-14 at 60 μM, 60 μM compound
T1 construct: genes encoding the full-length and MTase domain of human METTL3; METTL3-14 FL: full length of METTL3-14; 10x His (thrombin-cleavable) (cleaved yes); made in house; host or cells: Trichoplusia ni (Hi5) cells co-infected with two baculoviruses (virus made in Sf9)
T1 sequence (Q86U44 whole entry, the tested form may be a part): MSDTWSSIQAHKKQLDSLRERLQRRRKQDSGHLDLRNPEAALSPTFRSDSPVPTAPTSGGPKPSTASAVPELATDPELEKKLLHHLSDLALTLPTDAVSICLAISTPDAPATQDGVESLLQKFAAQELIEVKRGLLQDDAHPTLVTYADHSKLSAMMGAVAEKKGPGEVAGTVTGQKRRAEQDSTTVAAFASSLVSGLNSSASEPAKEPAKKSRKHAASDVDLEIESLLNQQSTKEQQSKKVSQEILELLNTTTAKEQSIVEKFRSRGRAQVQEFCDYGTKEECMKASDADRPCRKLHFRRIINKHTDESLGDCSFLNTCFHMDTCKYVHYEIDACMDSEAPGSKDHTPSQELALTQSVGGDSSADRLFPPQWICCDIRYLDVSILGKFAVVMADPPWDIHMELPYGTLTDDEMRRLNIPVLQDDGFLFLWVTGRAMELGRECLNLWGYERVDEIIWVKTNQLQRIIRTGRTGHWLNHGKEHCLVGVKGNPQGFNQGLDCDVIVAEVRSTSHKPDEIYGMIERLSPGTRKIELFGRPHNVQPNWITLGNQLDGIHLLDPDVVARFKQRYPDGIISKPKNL
T1 sequence (Q9HCE5 whole entry partner, the tested form may be a part): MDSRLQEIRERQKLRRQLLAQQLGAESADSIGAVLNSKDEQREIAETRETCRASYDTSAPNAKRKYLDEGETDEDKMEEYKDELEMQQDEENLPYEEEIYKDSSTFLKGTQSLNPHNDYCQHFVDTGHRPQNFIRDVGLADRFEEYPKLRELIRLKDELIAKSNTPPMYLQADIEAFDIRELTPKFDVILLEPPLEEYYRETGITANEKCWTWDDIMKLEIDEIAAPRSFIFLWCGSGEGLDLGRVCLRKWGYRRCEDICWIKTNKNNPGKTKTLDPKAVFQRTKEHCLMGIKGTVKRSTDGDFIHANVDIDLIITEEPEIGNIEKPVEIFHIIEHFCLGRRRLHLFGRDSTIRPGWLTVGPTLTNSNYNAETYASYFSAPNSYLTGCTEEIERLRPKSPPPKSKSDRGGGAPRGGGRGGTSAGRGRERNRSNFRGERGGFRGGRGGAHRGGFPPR
Description: An enzymatic bioluminescence assay was established to identify the METTL3-14 inhibitor through screening. […] METTL3-14 activity was assessed by measuring the luminescence using a Victor multilabel reader (PerkinElmer, Waltham, MA, USA). The IC50 values were calculated by a nonlinear regression analysis using OriginPro 9.1 software (OriginLab).
To confirm the mechanism of action of eltrombopag in the METTL3-14 complex, 30 nM METTL3-14 and serially diluted eltrombopag were reacted with various concentrations of SAM or RNA substrate and saturating concentrations of the other substrate (3 μM SAM or 2 μM RNA substrate) for 20 min. To evaluate the inhibitory activity in a single form of METTL3 and METTL14, 1 μM of METTL3 and 300 nM of METTL14 were incubated with 1 μM of SAM, 500 nM of RNA substrates, and serially diluted eltrombopag for 5 h. To measure the inhibitory activity in the truncated form of the METTL3-14 complex, 1 μM of the truncated METTL3-14 complex was reacted with 1 μM of SAM, 500 nM of RNA substrates, and serially diluted eltrombopag for 5 h.

[2] = system: m^6A/A on poly-A+-enriched mRNA of MOLM-13 cells; set-up: method as in PMID 34237194; conditions: cited from earlier work
MOLM-13 cells [3] = assay: Combinatorial analysis of AML drugs with eltrombopag (EZ-cytox, Synergyfinder); type: cell-based; conditions: Homo sapiens, MOLM-13, 72 h, eltrombopag 0 nM; for inhibition at 0.00167 µM: AML drug alone 1.67 nM; for inhibition at 0.005 µM: AML drug alone 5 nM; for inhibition at 0.015 µM: AML drug alone 15 nM; for inhibition at 0.045 µM: AML drug alone 45 nM
Description: The MOLM-13 cells were seeded in white 96-well clear bottomed plates with 50 μL of medium (5000 cells/well). The plated cells were treated with serially diluted eltrombopag and current AML drugs, including venetoclax, cytarabine, gilteritinib, and sorafenib, to a final volume of 100 μL and incubated for 72 h at 37 °C. After incubation, 10 μL of EZ-cytox kit reagent from the EZ-cytox cell viability assay kit (DaeiLab) was added to each well and then incubated for 3 h at 37 °C. The absorbance of metabolically active cells was measured at a wavelength of 450 nm using a Victor multilabel reader (PerkinElmer). The synergy scores of each combination were quantified by the HAS model, ZIP model, Loewe additivity model, and Bliss independence models using Synergyfinder software. Positive or negative synergy scores obtained through these models represent synergy and antagonism, respectively.

MOLM-13 cells [4] = assay: Anti-proliferative assay (EZ-cytox), MOLM-13; type: cell-based; conditions: Homo sapiens
Description: The MOLM-13, MOLM-14, HL60, MV4-11, and THP-1 cells were seeded in white 96-well clear bottomed plates with 100 μL of medium (5000 cells/well). The plated cells were treated with serially diluted compounds and incubated for 72 h at 37 °C. After incubation, 10 μL of EZ-cytox kit reagent from the EZ-cytox cell viability assay kit (DaeiLab, Seoul, Korea) was added to each well and then incubated for 3 h at 37 °C. The absorbance of metabolically active cells was measured at a wavelength of 450 nm using a Victor multilabel reader (PerkinElmer). The GI50 values were calculated by nonlinear regression analysis using OriginPro 9.1 software (OriginLab).

SETD2 = target: T2, SETD2 (Homo sapiens, UniProt Q9BYW2); assay: Methyltransferase selectivity panel (MT HotSpot radioisotope assay), SETD2; type: biochemical; conditions: positive control
T2 construct: purchased Reaction Biology (Malvern, PA, USA), contract assay
Description: (§1) The selectivity profile of eltrombopag was investigated by testing the level of inhibition in a methyltransferase panel. The inhibition of 7 […] methyltransferase was tested at Reaction Biology (Malvern, PA, USA) using a gold standard radioisotope-based MT assay (MT HotSpot^TM) with 10 μM of eltrombopag in duplicate.

SMYD3 = target: T3, SMYD3 (Homo sapiens, UniProt Q9H7B4); assay: Methyltransferase selectivity panel (MT HotSpot radioisotope assay), SMYD3; type: biochemical
T3 construct: purchased Reaction Biology (Malvern, PA, USA), contract assay
T3 sequence (Q9H7B4 1-428): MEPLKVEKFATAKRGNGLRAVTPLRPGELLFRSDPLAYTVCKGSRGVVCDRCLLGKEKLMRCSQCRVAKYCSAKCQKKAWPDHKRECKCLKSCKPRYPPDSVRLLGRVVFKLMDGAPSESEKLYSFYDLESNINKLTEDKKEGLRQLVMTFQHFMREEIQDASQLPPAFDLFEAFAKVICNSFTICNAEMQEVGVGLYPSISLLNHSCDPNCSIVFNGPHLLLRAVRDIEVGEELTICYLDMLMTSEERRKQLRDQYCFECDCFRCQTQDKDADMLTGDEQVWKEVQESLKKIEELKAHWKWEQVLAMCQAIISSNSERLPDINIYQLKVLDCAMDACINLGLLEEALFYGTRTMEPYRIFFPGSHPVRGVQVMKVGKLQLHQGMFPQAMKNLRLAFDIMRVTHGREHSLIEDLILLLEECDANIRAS
Description: as §1

MLL4 complex = target: T4, MLL4 complex (Homo sapiens, UniProt Q9UMN6); assay: Methyltransferase selectivity panel (MT HotSpot radioisotope assay), MLL4 complex; type: biochemical; conditions: positive control
T4 construct: purchased Reaction Biology (Malvern, PA, USA), contract assay
Description: as §1

PRDM9 = target: T5, PRDM9 (Homo sapiens, UniProt Q9NQV7); assay: Methyltransferase selectivity panel (MT HotSpot radioisotope assay), PRDM9; type: biochemical; conditions: positive control
T5 construct: purchased Reaction Biology (Malvern, PA, USA), contract assay
T5 sequence (Q9NQV7 whole entry): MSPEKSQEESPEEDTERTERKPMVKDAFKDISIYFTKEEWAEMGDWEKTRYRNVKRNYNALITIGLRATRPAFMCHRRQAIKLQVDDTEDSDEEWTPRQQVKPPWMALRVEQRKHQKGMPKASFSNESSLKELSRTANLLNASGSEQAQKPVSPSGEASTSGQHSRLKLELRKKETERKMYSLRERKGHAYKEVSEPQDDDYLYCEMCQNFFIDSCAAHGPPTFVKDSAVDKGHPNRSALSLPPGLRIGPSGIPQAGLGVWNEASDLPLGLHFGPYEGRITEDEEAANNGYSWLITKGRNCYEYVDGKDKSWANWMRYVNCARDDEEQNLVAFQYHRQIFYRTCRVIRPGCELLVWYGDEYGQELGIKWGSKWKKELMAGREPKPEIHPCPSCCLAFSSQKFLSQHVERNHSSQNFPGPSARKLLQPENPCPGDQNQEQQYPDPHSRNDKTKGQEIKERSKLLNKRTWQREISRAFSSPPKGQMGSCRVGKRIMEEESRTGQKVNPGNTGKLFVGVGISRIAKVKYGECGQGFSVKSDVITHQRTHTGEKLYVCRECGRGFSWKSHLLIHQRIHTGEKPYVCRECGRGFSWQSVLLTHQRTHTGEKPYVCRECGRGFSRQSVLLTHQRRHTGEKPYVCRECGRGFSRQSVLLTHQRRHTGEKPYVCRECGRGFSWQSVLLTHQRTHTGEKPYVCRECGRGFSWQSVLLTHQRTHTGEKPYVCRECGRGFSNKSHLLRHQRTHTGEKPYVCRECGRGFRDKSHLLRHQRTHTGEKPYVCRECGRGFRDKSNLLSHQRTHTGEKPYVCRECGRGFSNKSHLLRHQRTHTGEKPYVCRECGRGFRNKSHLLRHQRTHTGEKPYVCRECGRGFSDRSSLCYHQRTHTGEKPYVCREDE
Description: as §1

DOT1L = target: T6, DOT1L (Homo sapiens, UniProt Q8TEK3); assay: Methyltransferase selectivity panel (MT HotSpot radioisotope assay), DOT1L; type: biochemical
T6 construct: purchased Reaction Biology (Malvern, PA, USA), contract assay
T6 sequence (Q8TEK3 whole entry): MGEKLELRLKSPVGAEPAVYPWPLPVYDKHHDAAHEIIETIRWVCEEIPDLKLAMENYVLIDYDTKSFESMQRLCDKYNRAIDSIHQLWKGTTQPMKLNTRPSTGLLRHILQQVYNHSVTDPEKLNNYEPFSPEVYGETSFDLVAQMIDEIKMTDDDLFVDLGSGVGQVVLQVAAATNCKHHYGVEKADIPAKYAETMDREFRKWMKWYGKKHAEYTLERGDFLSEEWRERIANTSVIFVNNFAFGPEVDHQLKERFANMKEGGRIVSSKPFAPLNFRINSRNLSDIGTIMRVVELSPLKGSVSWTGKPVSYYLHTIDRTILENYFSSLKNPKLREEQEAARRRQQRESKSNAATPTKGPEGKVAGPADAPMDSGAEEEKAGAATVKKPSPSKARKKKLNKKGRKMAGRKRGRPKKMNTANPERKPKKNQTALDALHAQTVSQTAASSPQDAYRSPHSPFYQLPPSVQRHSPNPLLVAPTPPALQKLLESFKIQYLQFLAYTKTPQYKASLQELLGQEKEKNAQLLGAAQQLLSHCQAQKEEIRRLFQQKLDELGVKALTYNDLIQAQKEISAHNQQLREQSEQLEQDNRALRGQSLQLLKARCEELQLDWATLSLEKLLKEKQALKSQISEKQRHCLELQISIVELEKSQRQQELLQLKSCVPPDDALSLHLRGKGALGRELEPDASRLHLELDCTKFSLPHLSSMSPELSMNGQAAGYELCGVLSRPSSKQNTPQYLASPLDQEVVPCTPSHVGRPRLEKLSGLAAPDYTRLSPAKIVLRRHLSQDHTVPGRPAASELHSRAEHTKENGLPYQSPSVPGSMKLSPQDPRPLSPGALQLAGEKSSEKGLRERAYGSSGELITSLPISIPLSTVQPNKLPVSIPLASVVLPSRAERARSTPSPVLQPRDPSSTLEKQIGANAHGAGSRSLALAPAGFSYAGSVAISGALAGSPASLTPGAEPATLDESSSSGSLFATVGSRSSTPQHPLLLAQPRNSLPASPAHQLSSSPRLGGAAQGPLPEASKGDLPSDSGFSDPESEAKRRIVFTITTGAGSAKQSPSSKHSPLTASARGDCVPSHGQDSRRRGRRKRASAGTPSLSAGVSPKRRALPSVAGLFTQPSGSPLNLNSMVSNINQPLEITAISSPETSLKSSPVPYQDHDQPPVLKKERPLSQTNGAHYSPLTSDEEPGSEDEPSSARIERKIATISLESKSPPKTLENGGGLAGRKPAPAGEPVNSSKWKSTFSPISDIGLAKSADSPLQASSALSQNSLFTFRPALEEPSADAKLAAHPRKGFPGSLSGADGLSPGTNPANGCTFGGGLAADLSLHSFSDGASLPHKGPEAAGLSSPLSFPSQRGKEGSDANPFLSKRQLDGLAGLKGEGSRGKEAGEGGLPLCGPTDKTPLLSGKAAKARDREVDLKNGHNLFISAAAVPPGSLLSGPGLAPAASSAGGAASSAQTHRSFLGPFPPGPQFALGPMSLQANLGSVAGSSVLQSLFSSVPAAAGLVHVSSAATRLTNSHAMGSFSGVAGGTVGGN
Description: as §1

In the case of STM2457, the “share of hypermethylation, previously reported” value [1] is given as “about 30%”.
In the case of C[S+](CC[C@H](N)C(=O)O)C[C@H]1O[C@@H](n2cnc3c(N)ncnc32)[C@H](O)[C@@H]1O (stereo partly drawn) [SAM, S-(5′-adenosyl)-L-methionine], the Km (METTL3-14 complex) is reported as 0.0986 µM.
In the case of CC1(C)CCN(Cc2ccc(C(=O)NC[C@]3(O)CCCN(c4cc(NCc5ccccc5)ncn4)C3)c(O)c2)CC1 [UZH1a], the “maximum m^6A inhibition, previously reported” value [2] is given as 60–70%.
COC(=O)c1cccc(-c2cccc(N/N=C3\C(=O)N(c4ccc(C)c(C)c4)N=C3C)c2O)c1 [Compound 14b] gave an inhibition at 60 µM (METTL3-14 complex) of 23.7%.
In the case of CC1=NN(c2ccc(C)c(C)c2)C(=O)/C1=N\Nc1cccc(-c2cccc(C(=O)O)c2)c1 [Compound 14d], the IC50 (METTL3-14 complex; full length METTL3-14 30 nM, SAM 300 nM, RNA substrate 300 nM, 1 h, read-out: IC50, METTL3-14 inhibition, bioluminescence enzyme based assay) is reported as 15.3 µM and the “fold decrease of METTL3-14 inhibitory activity versus eltrombopag” value (METTL3-14 complex; relative to eltrombopag) is reported as 4 fold.
For “RNA: RNA substrate 5′-ACGAGUCCUGGACUGAAACGGACUUGU-3′ (RNA, backbone not given here)”, the Km (METTL3-14 complex) was 0.0705 µM.
Work on CC1(C)CCC(CN2CCN(c3ccc(C(=O)NS(=O)(=O)c4ccc(NCC5CCOCC5)c([N+](=O)[O-])c4)c(Oc4cnc5[nH]ccc5c4)c3)CC2)=C(c2ccc(Cl)cc2)C1 [Venetoclax] yielded an inhibition at 0.00167 µM (MOLM-13 cells [3]) of 12.8 ± 3.69%, an inhibition at 0.005 µM (MOLM-13 cells [3]) of 29.2 ± 0.39% and an inhibition at 0.015 µM (MOLM-13 cells [3]) of 54.5 ± 3.76%. The inhibition at 0.045 µM (MOLM-13 cells [3]) was 77 ± 0.92%.
For CCc1nc(C(N)=O)c(Nc2ccc(N3CCC(N4CCN(C)CC4)CC3)c(OC)c2)nc1NC1CCOCC1 [Gilteritinib], the GI50 (MOLM-13 cells [4]; MOLM-13, 72 h, positive control, Figure S3) was 0.0166 µM.
Compound Nc1ncnc2c1ncn2[C@@H]1O[C@H](C[C@@H](N)CC[C@H](N)C(=O)O)[C@@H](O)[C@H]1O [Sinefungin, sinefungin] has a GI50 (MOLM-13 cells [4]; MOLM-13, 72 h) of 24.8 ± 1.2 µM.
Work on Nc1ncnc2c1ncn2[C@@H]1O[C@H](CSCC[C@H](N)C(=O)O)[C@@H](O)[C@H]1O [SAH, S-(5′-adenosyl)-L-homocysteine] yielded an IC50 (SETD2) of 10.8 µM, an IC50 (SMYD3) of 35.3 µM and an IC50 (MLL4 complex) of 5.09 µM. It also gave an IC50 (PRDM9) of 4.16 µM.
CN1C(=O)[C@@]23C[C@]4([C@]56C[C@@]78SS[C@@](CO)(C(=O)N7[C@H]5Nc5ccccc56)N(C)C8=O)c5ccccc5N[C@@H]4N2C(=O)[C@]1(CO)SS3 [Chaetocin] gave an IC50 (DOT1L) of 0.217 µM.
In the case of Nc1ccn([C@@H]2O[C@H](CO)[C@@H](O)[C@@H]2O)c(=O)n1 [Cytarabine], the inhibition at 0.00167 µM (MOLM-13 cells [3]) is reported as 2.2 ± 3.1%, the inhibition at 0.005 µM (MOLM-13 cells [3]) is reported as 20.7 ± 4.33% and the inhibition at 0.015 µM (MOLM-13 cells [3]) is reported as 48.3 ± 1.93%. The inhibition at 0.045 µM (MOLM-13 cells [3]) was 75.7 ± 1.35%.
CC1=NN(c2ccc(C)c(C)c2)C(=O)/C1=N\Nc1cccc(-c2ccccc2)c1O [Compound 14a] showed an inhibition at 60 µM (METTL3-14 complex) of 23.3%.
